The results in this text go back to patent publication US11932870B2, “Compositions and methods for immune cell modulation in adoptive immunotherapies” (Fate Therapeutics, Inc., priority 2016, dated 2024).

Experiment [1] concerns CAR-T cells co-cultured with irradiated K562 tumor cells that express CD19. The experiment is described as follows: In vitro serial killing/re-stimulation assay. The class given is cell-based, human. As to conditions: relative to vehicle. The text has this: An informative clinical parameter that can in some contexts be indicative of likelihood of successful adoptive cell therapy in clinical trials is the ability and extent of expansion of the transferred cells in the patient post-treatment and/or persistence and continued function following initial expansion, e.g., in the context of continued exposure to antigen. The ability of engineered T cells to persist and continue expanding over multiple rounds of antigen stimulation can be indicative of such features and/or likelihood of in vivo function or clinical response. An in vitro serial killing/re-stimulation assay, where the T cells treated by each compound were evaluated for various functions, including expansion and ability to kill tumor cells expressing the target antigen in vitro over multiple rounds of exposure to and withdrawal from antigen, was used as a model system. Such assays were carried out on cells treated with or without compounds, to assess the impact of individual compounds on cell function after repeated encounter with antigen, and cell expansion or persistence in such contexts.
CD8 T cells were activated, transduced, and expanded in the presence of DMSO, TWS119, or DCC-2036. At the end of the expansion, the CAR-T cells were cryopreserved. The serial re-stimulation assay was performed by thawing the CAR-T cells and co-culturing with irradiated K562 tumor cells that express CD19, the antigen recognized by the CAR. Prior to starting each round of killing, cell numbers were adjusted so that CAR-T cell numbers were substantially the same from the cultures generated with DMSO, TWS119, and DCC-2036 treatment respectively. An equal number of irradiated CD19-expressing K562 target cells were added to the different CAR-T cultures.

Experiment [2] concerns CD8 CAR-T cells. The experiment is described as follows: Exhaustion marker expression (PD-1, Tim-3) on CD8 CAR-T cells. The experiment is classed as cell-based, human. The procedure:
(§1) Culturing cells in large-scale for phenotypic and exhaustion marker evaluation. Isolated CD8 T cells were activated in bulk on day 0 using anti-CD3/anti-CD28 beads in T cell media supplemented with IL-2. On day 1, cells were transduced with the CAR Construct and cell density was adjusted to 0.5×10^6/ml and 10^6 cells were seeded into 12-well plates in the presence of vehicle, TWS119, or DCC-2036. On day 4, cells were transferred into 6-well plates and 2 ml of T cell media was added to each well. On day 6 another 2 ml of media was added to each well. On day 8, CAR T cells were analyzed on a flow cytometer for surface expression of phenotypic markers (CD62L, CCR7, and CD27) and exhaustion markers (PD-1 and Tim-3).
To determine the effect of compound treatment of CAR-T cells on exhaustion marker expression, cells from three different donors were prepared and treated as described in the protocol above. PD-1 and Tim-3 expression was determined using flow cytometry. […] Tim-3 expression was reduced 2-fold with TWS119, and 3.7-fold with DCC-2036 treatment (FIG. 6A).

Experiment [3] deals with CD8 T cells transduced with CAR Construct 1. Nature of the experiment: Tcm phenotype skewing of CAR-T cells (CD62L, CCR7, CD27 surface expression). The experiment is classed as cell-based, human. As to conditions: flow cytometry day 8. On the procedure: as §1
To determine the effect of compound treatment on skewing towards a central memory phenotype, isolated CD8 T cells were activated in bulk on day 0 using anti-CD3/anti-CD28 beads in T cell media supplemented with IL-2. On day 1, cells were transduced with the CAR Construct 1 shown in FIG. 2 and cell density was adjusted to 0.5×10^6/ml and 10^6 cells were seeded into 12 well plates in the presence of vehicle (DMSO), TWS119 or DCC-2036 at the same concentrations. On day 4, cells were transferred into 6-well plates and 2 ml of media was added to each well. On day 6 another 2 ml of media was added to each well. On day 8, cells were analyzed on a flow cytometer for cell surface expression of CD27.
The expression of CD27 observed with vehicle treatment was defined as an MFI (mean fluorescence intensity) of 1 and the relative MFI of cells treated with compound was calculated.
On the technique in general: A flow cytometer gives signals particle by particle.

Experiment [4] deals with Nalm-6-luc tumor cells. Nature of the experiment: In vivo tumor clearance by compound-treated CD19 CAR-T cells. The following applies: NSG mice with Nalm-6-luc; 2.0×10^5 cryopreserved compound-treated CAR-T cells per animal (1:1 CD4:CD8); imaging; FIGS. 7 and 8. The procedure:
NSG mice were injected with Nalm-6-luc, a CD19+ human tumor line engineered to express firefly luciferase. CAR-T cells were generated from CD4+ and CD8+ T cells that were separately activated and expanded in vitro. The cells were transduced with the CAR-2 construct (FIG. 2) one day after activation and then replated into 24-well GREX plates with or without the compounds. Half the media was replaced every two days thereafter until harvest one week post-activation. Cells were cryopreserved and then thawed for use. NSG mice were infused with tumor cells followed […] by CAR-T transfer via retroorbital injection. Four days after IV. injection with Nalm-6-luc cells, mice were treated with 2.0×10^5 CAR-T cells per animal (1:1 CD4:CD8). The mice were imaged periodically to determine tumor burden.

The subject of experiment [5] is CD8+ T cells. The experiment is described as follows: RNA-Seq gene expression of memory T cell genes. The class given is cell-based, human. As to conditions: DCC-2036 1 μM, TWS-119 10 μM, roughly 6 days, 5 donors, relative to vehicle, FIG. 5. The text has this:
To characterize the impact of DCC-2036 in memory cell skewing, gene expression changes for a panel of key genes, (i.e. CCR7, CD62L, etc.) previously known to be highly expressed in memory T cells were investigated. Cryopreserved CD8+ T cells from 5 different donors were thawed and washed into X-Vivo 15 with 5% human AB serum, IL-2, pen/strep, and additional supplements. Cells were dispensed into flat-bottom 384-well plates at 5×10^5 cells/ml with anti-CD3/anti-CD28 beads. Cells were either treated with DCC-2036 at a final concentration of 1 μM, TWS-119 at 10 μM, or received a vehicle (DMSO) only control treatment. Cells were incubated for roughly 6 days at 37 degrees Celsius with 5% CO2.
Post incubation, cells were lysed and RNA was isolated, fragmented and cDNA was generated in the presence of the appropriate sequencing adapters and sequencing was performed using Illumina next generation sequencing technology (NGS). RNA-Sequencing (RNA-Seq) utilizes the capabilities of NGS to not only acquire nucleotide sequence information, but also provide quantitative gene expression measurements from a given samples transcriptome. Gene transcripts were normalized to counts per million (CPM) reads per samples and relative quantitation of each gene transcript was determined for each in treatment relative to the matching vehicle control treated samples. […]

Entries after “also recorded” stand apart in the source; their conditions may differ.

Take `CNC(=O)c1cc(Oc2ccc(NC(=O)Nc3cc(C(C)(C)C)nn3-c3ccc4ncccc4c3)c(F)c2)ccn1` [DCC-2036, Rebastinib]: the “cell number expansion of CAR-T cells in rounds 3 and 4 of the serial re-stimulation assay” value in experiment [1] (FIG. 3C) is “much higher than the vehicle control”. For the same compound, the “total expansion in CAR-T cell number through all 4 rounds of the serial re-stimulation assay” value in experiment [1] (FIG. 3D) is listed as “much greater expansion relative to the vehicle control; also recorded: improves cell expansion”. Besides, the “expression of T cell exhaustion marker Tim-3” value in experiment [2] (CD8 T cells at one week post activation, relative to DMSO, FIG. 6A) is on record as “reduced expression”. In experiment [2] (CD8 T cells at one week post activation, relative to DMSO, FIG. 6B), the “expression of T cell exhaustion marker PD-1” value is given as “reduced expression”. For the same compound, the “reduction of Tim-3 expression” value in experiment [2] (relative to vehicle, three donors, FIG. 6A) turned out to be 3.7 fold. Besides, in experiment [2] (relative to vehicle, three donors, FIG. 6B), the “decrease in PD-1 surface expression” value is 4.5 fold. Moreover, the “increase in the frequency of CAR-T cells expressing both CD62L and CCR7” value in experiment [3] (relative to vehicle (DMSO), FIG. 4A) amounted to 2.3 fold. The “increase in the expression of the differentiation marker CD27 (relative MFI)” value in experiment [3] (relative to vehicle (MFI defined as 1), FIG. 4B) is 2.2 fold. Further, the “tumor burden / tumor control” value in experiment [4] is “dramatically reduced tumor burden; also recorded: able to clear tumor from the majority of mice”. Further, the “expression of key memory T cell genes (CCR7, CD62L etc.)” value in experiment [5] is on record as “increases in expression at levels similar to or greater than TWS-119”; in experiment [5] (listed as DCC-2036 (FT-61314)), “increased expression”.
